Type in all cases: biochemical
Test [1] has as its target T1, CDK4/CyclinD1 (Homo sapiens, UniProt P11802).
T1 construct: purchased ProQinase 0142-0143-1
Nature of the test: CDK4/CyclinD1 kinase inhibitory activity (Caliper mobility shift). Particulars: enzyme 20 nM, ATP 672 uM, 28° C. 30 min; read-out: CDK4/Cyclin D1 IC50. Summed up: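 Recombinant CDK4/Cyclin D1 (20 nM final) preincubated 10 min at room temperature with compound in HEPES pH 7.5 buffer with MgCl2, DTT and Triton X-100. Reaction started with 3000 nM FAM-labelled peptide and 672 uM ATP, run 30 min at 28° C, stopped with EDTA. Mobility-shift % conversion gave % inhibition, and IC50 came from dose-response fits.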

Test [2] concerns the target T2, CDK1/CyclinB (Homo sapiens, UniProt P06493).
T2 construct: purchased Millipore 14-450M
The experiment in a line: CDK1/CyclinB kinase inhibitory activity (Caliper mobility shift). To be noted: enzyme 3 nM, ATP 20 μM, 28° C. 30 min; read-out: CDK1/Cyclin B1 IC50. The procedure:
CDK1/CyclinB kinase inhibitory activity (IC50): 5 μl of various dilutions of test compound in 1× kinase buffer (50 mM HEPES pH 7.5, 10 mM MgCl2, 2 mM DTT and 0.01% Brij-35) was mixed with 10 μL of CDK1/CyclinB (Millipore, 14-450M #, final concentration 3 nM in 1× Kinase buffer) in 384 plates and incubated at room temperature for 10 min. To initiate each reaction, 10 μL of peptide solution containing fluorescently-labeled-peptide 18(5-FAM-QSPKKG-CONH2) (GL, 114202 #, final concentration 3000 nM) and ATP (final concentration 20 μM) in 1× Kinase buffer was added to each of the wells containing test compound and CDK1/CyclinB mixture. The reaction is then allowed to proceed at 28° C. for 30 min and terminated by the addition of 25 μL stop buffer (100 mM HEPES pH 7.5, 50 mM EDTA, 0.2% Coating Reagent #3 (Perkin Elmer, 760050 #) and 0.015% Brij-35).
(§1) Following the kinase reaction, Caliper EZ reader II (Downstream voltages: −500V, Upstream voltages: −2250V, Base pressure −0.5 PSI, Screen pressure −1.2 PSI) was used to separate the phosphorylated (product) and the unphosphorylated (substrate) fluorescently-labeled peptide 18 based on their different mobility. Both substrate and product were measured and the ratio of these values were used to generate % conversion by Caliper EZ reader II. These conversion values were then transformed into % inhibition of kinase activity using the formula: % Inhibition=[(MA−X)/(MA−MI)]×100% where MA=conversion value of DMSO only controls, MI=conversion value of no enzyme controls and X=conversion value at any given compound dose. IC50 values were then calculated by plotting dose-response curves and then using the XLfit application in Excel software.

Test [3] addresses T3, CDK2/CyclinE1 (Homo sapiens, UniProt P24941).
T3 construct: purchased Carna 04-165
The experiment in a line: CDK2/CyclinE1 kinase inhibitory activity (Caliper mobility shift). To be noted: enzyme 3 nM, ATP 77 μM, 28° C. 30 min; read-out: CDK2/Cyclin E1 IC50. How it is done:
CDK2/CyclinE1 kinase inhibitory activity (IC50): 5 μl of various dilutions of test compounds in 1×kinase buffer (50 mM HEPES pH 7.5, 10 mM MgCl2, 2 mM DTT and […] Brij-35) were mixed with 10 μL of CDK2/CyclinE1 (Carna, 04-165 #, final concentration 3 nM in 1×Kinase buffer) in 384 plates and incubated at room temperature for 10 min. To initiate each reaction, 10 μL of peptide solution containing fluorescently-labeled-peptide 18(5-FAM-QSPKKG-CONH2) (GL, 114202 #, final concentration 3000 nM) and ATP (final concentration 77 μM) in 1×Kinase buffer was added to each of the wells containing test compound and CDK2/CyclinE1 mixture. The reaction was then allowed to proceed at 28° C. for 30 min and terminated by the addition of 25 μL stop buffer (100 mM HEPES pH 7.5, 50 mM EDTA, 0.2% Coating Reagent #3 (Perkin Elmer, 760050 #) and 0.015% Brij-35).
as §1

Some results are limits rather than exact numbers.

T1 sequence (P11802 whole entry): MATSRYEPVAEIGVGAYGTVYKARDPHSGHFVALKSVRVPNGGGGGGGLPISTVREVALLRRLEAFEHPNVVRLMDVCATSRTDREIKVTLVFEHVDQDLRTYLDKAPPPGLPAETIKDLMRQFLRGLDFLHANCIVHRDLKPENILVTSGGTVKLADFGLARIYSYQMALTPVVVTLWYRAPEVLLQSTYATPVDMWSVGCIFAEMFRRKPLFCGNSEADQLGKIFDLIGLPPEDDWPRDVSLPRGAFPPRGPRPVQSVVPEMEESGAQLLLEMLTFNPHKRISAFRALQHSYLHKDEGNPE
T1 sequence (P24385 whole entry partner): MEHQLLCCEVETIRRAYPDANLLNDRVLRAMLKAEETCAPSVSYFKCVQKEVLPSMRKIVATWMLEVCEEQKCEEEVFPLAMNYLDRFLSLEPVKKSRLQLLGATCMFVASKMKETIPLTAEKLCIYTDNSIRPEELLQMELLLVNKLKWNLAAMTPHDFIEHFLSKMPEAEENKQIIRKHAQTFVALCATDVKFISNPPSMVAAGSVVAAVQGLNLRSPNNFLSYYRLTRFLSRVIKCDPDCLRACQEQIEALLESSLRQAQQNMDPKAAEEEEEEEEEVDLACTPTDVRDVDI
T2 sequence (P06493 whole entry): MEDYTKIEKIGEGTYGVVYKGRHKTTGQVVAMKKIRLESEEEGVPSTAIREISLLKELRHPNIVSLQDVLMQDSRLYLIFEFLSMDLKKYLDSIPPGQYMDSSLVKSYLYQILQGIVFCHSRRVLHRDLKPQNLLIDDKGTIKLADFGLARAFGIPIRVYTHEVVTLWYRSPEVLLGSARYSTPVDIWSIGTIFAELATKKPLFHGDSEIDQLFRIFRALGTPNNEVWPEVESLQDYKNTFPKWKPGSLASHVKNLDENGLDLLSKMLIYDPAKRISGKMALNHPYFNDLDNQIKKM
T2 sequence (P14635 whole entry partner): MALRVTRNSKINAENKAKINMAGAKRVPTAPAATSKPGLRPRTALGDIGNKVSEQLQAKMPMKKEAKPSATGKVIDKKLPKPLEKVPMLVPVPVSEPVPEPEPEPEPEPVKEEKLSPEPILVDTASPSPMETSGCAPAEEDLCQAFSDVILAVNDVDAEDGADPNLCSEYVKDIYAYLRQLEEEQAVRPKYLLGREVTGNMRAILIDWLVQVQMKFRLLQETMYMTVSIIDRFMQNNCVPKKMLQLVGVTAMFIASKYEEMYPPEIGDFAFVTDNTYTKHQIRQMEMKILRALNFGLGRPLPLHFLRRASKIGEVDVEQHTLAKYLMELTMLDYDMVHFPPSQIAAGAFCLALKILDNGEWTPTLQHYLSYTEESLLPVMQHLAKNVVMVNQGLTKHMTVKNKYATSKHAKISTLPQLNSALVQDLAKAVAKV

Regarding `Cc1[nH]cnc1-c1cnc2c(F)cc(-c3nc(N[C@@H]4CCOC[C@H]4O)ncc3Cl)cc2c1` [Example 18, (3S,4R)-4-((5-chloro-4-(8-fluoro-3-(5-methyl-1H-imidazol-4-yl)quinolin-6-yl)pyrimidin-2-yl)amino)tetrahydro-2H-pyran-3-ol], the results for the IC50 in test [1], in test [2] and in test [3] were under 10 nM, 100 to 1000 nM and 100 to 1000 nM, respectively.
As to `[2H]c1nc2c(F)cc(-c3nc(N[C@@H]4CCOC[C@H]4O)ncc3Cl)cc2c2c1CC(C)(C)NC2` [Example 100], the IC50 was under 10 nM in test [1], 100 to 1000 nM in test [2] and 100 to 1000 nM in test [3].
`[2H]c1nc(N[C@@H]2CCOC[C@H]2O)nc(-c2cc(F)c3nc([2H])c4c(c3c2)CNC2(CC2)C4)c1Cl` [Example 68]: the results for the IC50 in test [1], in test [2] and in test [3] were under 10 nM, 100 to 1000 nM and 100 to 1000 nM, respectively.
In the case of `CC(C)(O)c1cnc2c(F)cc(-c3nc(N[C@@H]4CCOC[C@H]4O)ncc3Cl)cc2c1` [Example 1, (3S,4R)-4-((5-chloro-4-(8-fluoro-3-(2-hydroxypropan-2-yl)quinolin-6-yl)pyrimidin-2-yl)amino)tetrahydro-2H-pyran-3-ol], the results for the IC50 in test [1], in test [2] and in test [3] were under 10 nM, at least 1000 nM and at least 1000 nM, respectively.
Turning to `O[C@@H]1COCC[C@H]1Nc1ncc(F)c(-c2cc(F)c3ncc4c(c3c2)CNC2(CC2)C4)n1` [Example 56], the IC50 was under 10 nM in test [1], 10 to 100 nM in test [2] and 10 to 100 nM in test [3].
Regarding `O[C@@H]1COCC[C@H]1Nc1ncc(Cl)c(-c2cc(F)c3ncc(C4(O)CC4)cc3c2)n1` [Example 29], the IC50 in test [1] fell in the range of 10 to 100 nM; in test [2], 100 to 1000 nM; in test [3], 100 to 1000 nM.
Regarding `O[C@@H]1COCC[C@H]1Nc1ncc(Cl)c(-c2cc(F)c3ncc4c(c3c2)CNC2(CC2)C4)n1` [Example 21, (3S,4R)-4-((5-chloro-4-(7-fluoro-1,4-dihydro-2H-spiro[benzo[c][2,6]naphthyridine-3,1′-cyclopropan]-9-yl)pyrimidin-2-yl)amino)tetrahydro-2H-pyran-3-ol], the IC50 in test [1] was under 10 nM; in test [2], 100 to 1000 nM; in test [3] it was 100 to 1000 nM.
For `O[C@@H]1COCC[C@H]1Nc1cc(-c2cc(F)c3ncc4c(c3c2)CNCC4)c(Cl)cn1` [Example 25], the IC50 is under 10 nM in test [1], 10 to 100 nM in test [2] and 10 to 100 nM in test [3].
In the case of `Cc1nc2c(F)cc(-c3nc(N[C@@H]4CCOC[C@H]4O)ncc3Cl)cc2c(Cl)c1C(C)O` (single isomer, unassigned) [Example 35b], the IC50 in test [1] was under 10 nM; in test [2], at least 1000 nM; in test [3] it was 100 to 1000 nM.
As to `CC(C)(N)c1cnc2c(F)cc(-c3nc(N[C@@H]4CCOC[C@H]4O)ncc3Cl)cc2c1` [Example 14, (3S,4R)-4-((4-(3-(2-aminopropan-2-yl)-8-fluoroquinolin-6-yl)-5-chloropyrimidin-2-yl)amino)tetrahydro-2H-pyran-3-ol], the figures for the IC50 in test [1], in test [2] and in test [3] were under 10 nM, 10 to 100 nM and 10 to 100 nM, respectively.
On to `Cc1c(C(C)(C)O)cnc2c(C)cc(-c3nc(N[C@@H]4CCOC[C@H]4O)ncc3Cl)cc12` [Example 58], for which the IC50 in test [1] was under 10 nM; in test [2], at least 1000 nM; in test [3], at least 1000 nM.
Take `[2H]c1nc2c(F)cc(-c3nc(N[C@@H]4CCOC[C@H]4O)ncc3C)cc2c2c1CC1(CC1)NC2` [Example 67]: the IC50 in test [1] is 10 to 100 nM; in test [2], at least 1000 nM; in test [3] it was at least 1000 nM.
For `Cc1nc2c(F)cc(-c3nc(N[C@@H]4CCOC[C@H]4O)ncc3Cl)cc2c2c1CCN(C)C2` [Example 37], the IC50 in test [1] was under 10 nM; in test [2] it was at least 1000 nM; in test [3] it was at least 1000 nM.
Regarding `CC1Cc2cnc3c(F)cc(-c4nc(N[C@@H]5CCOC[C@H]5O)ncc4Cl)cc3c2CN1` (single isomer, unassigned) [Example 34b], the IC50 is under 10 nM in test [1], at least 1000 nM in test [2] and 100 to 1000 nM in test [3].
Taken in the same sequence, the figures for `CC1(C)Cc2cnc3c(F)cc(-c4nc(N[C@@H]5CCOC[C@H]5O)ncc4Cl)cc3c2CN1` [Example 30] were under 10 nM, 100 to 1000 nM and 100 to 1000 nM.
Take `O[C@@H]1COCC[C@H]1Nc1ncc(Cl)c(-c2cc(F)c3ncc4c(c3c2)CNCC4)n1` [Example 9, (3S,4R)-4-((5-chloro-4-(7-fluoro-1,2,3,4-tetrahydrobenzo[c][2,6]naphthyridin-9-yl)pyrimidin-2-yl)amino)tetrahydro-2H-pyran-3-ol]: the IC50 in test [1] is under 10 nM; in test [2], 100 to 1000 nM; in test [3], 100 to 1000 nM.
Consider `Cc1nc2c(F)cc(-c3nc(N[C@@H]4CCOC[C@H]4O)ncc3F)cc2c2c1CC1(CC1)NC2` [Example 65], for which the IC50 in test [1] was under 10 nM; in test [2], 100 to 1000 nM; in test [3] it was 100 to 1000 nM.
As for `CNC(C)c1cc2cc(-c3nc(N[C@@H]4CCOC[C@H]4O)ncc3Cl)cc(F)c2nc1C` (single isomer, unassigned) [Example 45b], the IC50 in test [1] is under 10 nM; in test [2], at least 1000 nM; in test [3] it was at least 1000 nM.
For `O[C@@H]1COCC[C@H]1Nc1ncc(Cl)c(-c2cc(F)c3c(c2)N2CCNC[C@@H]2CO3)n1` [Example 19, (3S,4R)-4-((5-chloro-4-((R)-7-fluoro-1,2,3,4,4a,5-hexahydrobenzo[b]pyrazino[1,2-d][1,4]oxazin-9-yl)pyrimidin-2-yl)amino)tetrahydro-2H-pyran-3-ol], the IC50 was under 10 nM in test [1], 10 to 100 nM in test [2] and 10 to 100 nM in test [3].
In the case of `Cc1nc2c(F)cc(-c3nc(N[C@@H]4CCOC[C@H]4O)ncc3Cl)cc2c(C)c1[C@H](C)O` (single isomer, unassigned) [Example 15b], the IC50 is under 10 nM in test [1], 100 to 1000 nM in test [2] and 100 to 1000 nM in test [3].
As to `Cc1nc2c(F)cc(-c3nc(N[C@@H]4CCOC[C@H]4O)ncc3F)cc2c(C)c1C(C)O` (single isomer, unassigned) [Example 81a], the IC50 is under 10 nM in test [1], 100 to 1000 nM in test [2] and 100 to 1000 nM in test [3].
For the molecule `CC(C)(O)c1cnc2c(F)cc(-c3nc(N[C@@H]4CCOC[C@H]4O)ncc3F)cc2c1Cl` [Example 22, (3S,4R)-4-((4-(4-chloro-8-fluoro-3-(2-hydroxypropan-2-yl)quinolin-6-yl)-5-fluoropyrimidin-2-yl)amino)tetrahydro-2H-pyran-3-ol], the results for the IC50 in test [1], in test [2] and in test [3] were under 10 nM, 100 to 1000 nM and 100 to 1000 nM, respectively.
For the molecule `Cc1nc2c(F)cc(-c3nc(N[C@@H]4CCOC[C@H]4O)ncc3Cl)cc2c2c1CC(C)(C)NC2` [Example 98], the IC50 was under 10 nM in test [1], at least 1000 nM in test [2] and 100 to 1000 nM in test [3].
The corresponding values for `Cc1c(C(C)(C)O)cnc2c(F)cc(-c3nc(N[C@@H]4CCOC[C@H]4O)ncc3Cl)cc12` [Example 7, (3S,4R)-4-((5-chloro-4-(8-fluoro-3-(2-hydroxypropan-2-yl)-4-methylquinolin-6-yl)pyrimidin-2-yl)amino)tetrahydro-2H-pyran-3-ol] are under 10 nM, 100 to 1000 nM and 100 to 1000 nM.

Values taken from patent publication US20260242395A1, “AMINOHETEROARYL KINASE INHIBITORS” (ALLORION THERAPEUTICS INC, priority 2022, published 2026).
